Measurements from patent US4044043A, “Derivatives of 9-oxo-13-trans-prostenoic acid esters” (American Cyanamid Company, priority 1975, dated 1977).
In brackets after ≈: the same amount, converted by molar mass. Where two headings read alike, the source gives them in different places.

Assays:
[1] = system: diastolic blood pressure; test: Prostaglandin-like hypotensive activity in anesthetized rats (minimal dose for about 10 mm. decrease in diastolic blood pressure); assay type: in vivo, Male Wistar strain rats; conditions: Rattus norvegicus; intravenous; decrease of about 10 mm. in diastolic blood pressure
Summary of the method: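 Male Wistar rats (~250 g), pentobarbital 30 mg./kg. i.v. and hexamethonium 2 mg./kg. i.v., iliac artery cannulated for blood pressure. Compounds in saline-Tween 80 given i.v. at 0.1–10.0 mg./kg.; value is the minimal dose giving ~10 mm. drop in diastolic pressure.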

[2] = system: bronchospasms elicited by 5-hydroxytryptamine; test: Bronchodilator Activity (Konzett Assay) against 5-hydroxytryptamine; assay type: in vivo, guinea pigs; conditions: Cavia porcellus; three logarithmic cumulative intravenous doses
Summary of the method: (§1)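 Guinea pigs given intravenous spasmogen (5-hydroxytryptamine, histamine or acetylcholine) per Konzett procedure. ED50 derived from three logarithmic cumulative intravenous doses of test compound.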

[3] = system: bronchospasms elicited by acetylcholine; test: Bronchodilator Activity (Konzett Assay) against acetylcholine; assay type: in vivo, guinea pigs; conditions: Cavia porcellus; three logarithmic cumulative intravenous doses
Summary of the method: as §1

[4] = system: dl-PGE1-induced contraction of gerbil colon; test: Inhibition of dl-PGE1-Induced Contraction of Gerbil Colon (prostaglandin antagonist action); assay type: cell-based, gerbils (Meriones unguiculatus); conditions: Meriones unguiculatus, 1 min
Summary of the method: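 Ascending colon from male gerbils, held in De Jalon's solution at 37 °C under 95% O2/5% CO2 with 0.5 g resting tension, contraction recorded isometrically. 1 min compound exposure, then 1 min dl-PGE1 at 200 ng/ml (maximal) or 20 ng/ml (sub-maximal). Approximate ID50 taken from a concentration series against the preceding agonist-only cycle.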

[5] = sub-maximal challenge, 20 ng./ml. dl-PGE1, 50% inhibition of maximum response, read-out: ID50 vs. 20 ng. of PGE1/ml.
[6] = 200 ng./ml. dl-PGE1, read-out: ID50 vs. 200 ng. of PGE1/ml.

Structure (SMILES) | minimal effective dose [1] | ED50 [2] | ED50 [3] | IC50 [4, 5] | IC50 [4, 6]
CCCCCC/C=C/[C@@H]1CCCC(=O)[C@H]1CCCCCCC(=O)O (relative stereo) [9-oxo-10a-homo-13-trans-prostenoic acid] | 0.2 mg/kg | > 10.1 mg/kg | > 10.1 mg/kg | 2.5 to 5 µg/mL (≈ 7.43 to 14.9 µM) | –
CC/C=C\CC/C=C/[C@@H]1CCC(=O)[C@H]1CCCCCCC(=O)O (relative stereo) [9-oxo-13-trans-17-cis-prostadienoic acid] | 0.2 mg/kg | 0.422 mg/kg | 6 mg/kg | 2.5 to 5 µg/mL (≈ 7.8 to 15.6 µM) | –
CCCCCC/C=C/[C@H]1CCC(=O)[C@@H]1CCCCCCC(=O)O (relative stereo) [9-oxo-13-trans-prostenoic acid] | 0.4 mg/kg | 0.077 mg/kg | 1.02 mg/kg | 1.5 to 2 µg/mL (≈ 4.65 to 6.2 µM) | 9 to 10 µg/mL (≈ 27.9 to 31 µM)
CCC/C=C/[C@H]1CCC(=O)[C@@H]1CCCCCCC(=O)O (relative stereo) [9-oxo-18,19,20-trinor-13-trans-prostenoic acid] | – | 0.484 mg/kg | 6.42 mg/kg | – | 10 to 15 µg/mL (≈ 35.7 to 53.5 µM)
CCCCC/C=C/[C@H]1CCC(=O)[C@@H]1CCCCCCC(=O)O (relative stereo) [9-oxo-20-nor-13-trans-prostenoic acid] | 0.5 to 1 mg/kg | 0.152 mg/kg | 1.17 mg/kg | 5 µg/mL (≈ 16.2 µM) | –
CC(C)CC/C=C/[C@@H]1CCC(=O)[C@H]1CCCCCCC(=O)O (relative stereo) [17-methyl-9-oxo-19,20-dinor-13-trans-prostenoic acid] | 0.5 mg/kg | 2.8 mg/kg | 4.3 mg/kg | 0.25 to 0.5 µg/mL (≈ 0.81 to 1.62 µM) | –
O=C(O)CCCCCC[C@H]1C(=O)CC[C@@H]1/C=C/CCCCCCCl (relative stereo) [20-chloro-9-oxo-13-trans-prostenoic acid] | 0.5 mg/kg | 2.39 mg/kg | 4.82 mg/kg | 5 to 10 µg/mL (≈ 14 to 28 µM) | –
O=C(O)CCCCCC[C@@H]1C(=O)CC[C@H]1/C=C/CCCCl (relative stereo) [20-chloro-9-oxo-17,18,19-trinor-13-trans-prostenoic acid] | 2 to 8 mg/kg | 1.48 mg/kg | 3.87 mg/kg | 1 to 2.5 µg/mL (≈ 3.18 to 7.94 µM) | –
CCCCCCC/C=C/[C@@H]1CCC(=O)[C@H]1CCCCCCC(=O)O (relative stereo) [20-methyl-9-oxo-13-trans-prostenoic acid] | 0.5 to 2 mg/kg | 3.42 mg/kg | 2.44 mg/kg | 2 to 2.5 µg/mL (≈ 5.94 to 7.43 µM) | –
